Assays:
C57BL/6J mice = test: Pharmacologic treatment regime in the bleomycin-induced lung fibrosis model; type: in vivo, mouse; settings: for pleural matrix pools: after bleomycin-induced injury
Procedure: The inventors generated a labelling solution by mixing 5 μl NHS-ester (25 mg/ml) with 5 μl of 100 mM pH 9.0 sodium bicarbonate buffer, combining with 40 μl PBS to a total volume of 50 μl. Labelling solution was applied intrapleurally (for lung and/or heart fibrosis model) under isoflurane anesthesia with a 30 G cannula. Abdominal labeling was performed by injecting 100 μl of labelling solution intra-peritoneal (for liver and/or kidney fibrosis model).
The oropharyngeal administration of bleomycin for the induction of pulmonary fibrosis is carried out in an antagonistic anesthesia in C57BL/6J mice of both sexes (6-8 weeks age). After the toe-pinch reflex is absent, the mouse is placed on the incisors of the upper jaw and thus kept in an upright position. The tongue is carefully fixed with is held to the side with tweezers and the nose of the animal is covered with tweezers. By keeping the nose closed, the mouse is forced to breathe through the mouth. With the help of a pipette, bleomycin is dissolved in a dosage of 2 units/kg KGW in 80 μl PBS carefully into the throat. As soon as the animal has inhaled the solution, it will be
Hot plate transferred (duration approx. 30 to 60 seconds). After antagonization animals were housed for 14 days. Nintedanib was added 1 hour before bleomycin installation and every other day intra peritoneal 10 μM.
Pirfenidone (0.07 mg/kg), Nintedanib (0.21 mg/kg) and Cathepsin Inhibitor B (0.15 mg/kg) were injected 1 hour before bleomycin installation and every other day intra peritoneal in a volume of 100 μl in physiological saline solution.
(§1) Matrix invasion was calculated using histological sections, quantifying FITC signal per area via ImageJ (1.52i). Quantification of immunolabeling was performed in randomly distributed ROIs/FOVs. Multiphoton images were analyzed using Fiji plugins Fraklac V. 2.5 and LocalThickness_V-4.0.2.

TGFβ signaling = test: Ex vivo mouse lung biopsies treated with granulocytes, then TGFβ inhibitors; type: cell-based; settings: for matrix invasion: in the presence of granulocytes; for phosphorylated SMAD (pSMAD): mouse lung biopsies treated with granulocytes
Procedure: (§2) C57BL/6J male mice (6-8 weeks age) used to study the movement of lung matrix. After organ withdrawal 4 mm biopsy punches of murine lungs were generated. To obtain ectopic labeling of matrix, the inventors generated a labelling solution by mixing NHS-ester 1:1 with 100 mM pH 9.0 sodium bicarbonate buffer. Sterile Whatman filter paper (Sigma Aldrich) biopsy punches where soaked in NHS-labelling solution, and locally placed on the lung biopsy surface. After one minute, the labelling punch was removed. Mouse lung biopsies were cocultured in the RPMI medium (10% FBS with 1% Pen/Strep and 0.1% AmB) consist of different sub types of immune cells (0.1×10^6 cells/biopsy) isolated from the healthy and idiopathic pulmonary fibrosis human donors. Mouse lung biopsies with immune cells were then cultured in the ex vivo condition provided with 5% C02 at 37° C.
(§3) After 48 hours, mouse lung biopsies were fixed with the 4% formalin and incubated for overnight at 4° C. followed by PBS wash. Human lung tissues where obtained, labelled, and cultivated for 24 hours as described above.
as §1
The inventors sought to characterize the signaling pathways by which immune cells trigger matrix invasion and fibrosis and we naturally sought to investigate the known chief proponent, TGFβ. They wondered whether the fibrotic cascade of immune cells might start with mesothelial TGFβ expression. Mouse lung biopsies were treated with granulocytes, followed by administering two TGFβ inhibitors, Repsox and LDN-212854, in separate experiments (FIG. 2A). Inhibition of TGFβ signaling in both chemical assays decreased phosphorylated SMAD (pSMAD), which is the major mediator of TGFβ-induced signaling. Furthermore, inhibiting TGFβ reduced matrix invasion, even in the presence of granulocytes. Moreover, adding granulocytes alone led to increased phosphorylated SMAD signaling in mesothelium. These findings indicate granulocytes trigger TGFβ expression in mesothelium to initiate matrix accumulation and irrigation.

[1] = test system: fibrotic human lung tissue; test: Ex vivo matrix flow in fibrotic human lung tissue; type: cell-based
Procedure: All tissues (PFA, ST) used in this study were obtained with properly informed consent of patients. All experimental procedures were performed in accordance with the Ethics committee vote number/Study protocol number: 333-10 Parent Proposal number: BA34/2018.
as §2, §3

[2] = bleomycin, intra peritoneal 1 hour before and every other day

Row | SMILES | pleural matrix pools (C57BL/6J mice) | bleomycin-induced mortality (C57BL/6J mice; [2]) | matrix invasion into lungs (matrix movements) (C57BL/6J mice; [2]) | survival rates of lung injured animals (C57BL/6J mice; [2]) | matrix invasion (TGFβ signaling) | phosphorylated SMAD (pSMAD) (TGFβ signaling) | fibrosis development (C57BL/6J mice; [2]) | bleomycin-induced mortality (C57BL/6J mice; bleomycin, intra peritoneal 1 hour before and every other day, listed as Cathepsin B inhibitor) | fluid matrix flows [1]
1 | COC(=O)c1ccc2c(c1)NC(=O)/C2=C(\Nc1ccc(N(C)C(=O)CN2CCN(C)CC2)cc1)c1ccccc1 [Nintedanib] | rescue | prevent | inhibiting matrix movements | comparable |  |  |  |  | 
2 | Cc1cccc(-c2[nH]ncc2-c2ccc3ncccc3n2)n1 [Repsox] |  |  |  |  | reduced | decreased |  |  | 
3 | CC(NC(=O)[C@H](Cc1ccccc1)NC(=O)OCc1ccccc1)C(=O)CF (stereo partly shown) [Z-FA-FMK] | rescue | abrogated | completely prevented | 100% |  |  | completely prevented | prevent | blocks
4 | c1cc(-c2cnn3cc(-c4ccc(N5CCNCC5)cc4)cnc23)c2cccnc2c1 [LDN-212854] |  |  |  |  | reduced | decreased |  |  | 
5 | Cc1ccc(=O)n(-c2ccccc2)c1 [Pirfenidone] | rescue | prevent | inhibiting matrix movements | comparable |  |  |  |  | 

From patent US20250333482A1, “MODULATORS OF MESOTHELIAL ECM MOVEMENT” (Helmholtz Zentrum München Deutsches Forschungszentrum Für …, priority 2021, published 2025)
